Results on 15 compounds are retold here after PMC11508620, “Assessing the Potential of 1,2,3-Triazole-Dihydropyrimidinone Hybrids Against Cholinesterases: In Silico, In Vitro, and In Vivo Studies” (International Journal of Molecular Sciences, 2024).

Where two headings read alike, the source gives them in different places. Where only a bound is given, the exact number is not on record here.

For data set [1], the target named is T1, electrophorus electricus AChE (eeAChE) (Electrophorus electricus, UniProt O42275).
T1 construct: purified enzymes of animal origin, namely electrophorus electricus AChE (eeAChE) and equine serum BuChE (eqBuChE); purchased Sigma–Aldrich; host or cells: electric eel (animal origin)
T1 sequence (O42275 24-633): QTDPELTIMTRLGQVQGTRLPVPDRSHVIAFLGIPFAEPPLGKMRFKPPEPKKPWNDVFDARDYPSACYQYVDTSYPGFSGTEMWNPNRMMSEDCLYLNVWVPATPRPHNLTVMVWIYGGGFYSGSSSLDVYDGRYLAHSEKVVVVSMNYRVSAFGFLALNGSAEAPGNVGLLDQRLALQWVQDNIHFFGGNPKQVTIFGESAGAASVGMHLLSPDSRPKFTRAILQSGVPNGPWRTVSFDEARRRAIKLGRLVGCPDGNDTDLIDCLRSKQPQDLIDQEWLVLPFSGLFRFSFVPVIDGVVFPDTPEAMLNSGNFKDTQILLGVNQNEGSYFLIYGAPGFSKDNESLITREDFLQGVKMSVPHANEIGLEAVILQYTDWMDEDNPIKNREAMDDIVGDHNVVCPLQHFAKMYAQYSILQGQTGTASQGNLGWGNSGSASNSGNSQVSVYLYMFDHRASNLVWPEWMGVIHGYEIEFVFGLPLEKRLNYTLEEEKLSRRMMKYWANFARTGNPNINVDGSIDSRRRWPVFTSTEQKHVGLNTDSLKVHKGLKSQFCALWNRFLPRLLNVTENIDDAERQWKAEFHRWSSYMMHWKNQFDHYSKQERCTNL
Kind of data set: biochemical. Conditions: [S] = 121 µM; 0.1 M phosphate buffer pH 8.0, 25 °C; mean ± SD. Here is the method:
In order to evaluate the inhibitory activity against cholinesterase enzymes (AChE and BuChE), well-established in vitro models were used—purified enzymes of animal origin, namely electrophorus electricus AChE (eeAChE) and equine serum BuChE (eqBuChE). Hybrids A1–3 and B1–5 (Figure 3) were evaluated in vitro for cholinesterase inhibition using Ellman’s colorimetric method. […] The values are expressed as the mean ± standard deviation (SD).
The enzymatic activity of electrophorus electricus AChE (eeAChE) and equine serum BuChE (eqBuCHE) was assessed using the Ellman colorimetric assay, with minor modifications. […] Enzyme kinetics were monitored using UV-Vis spectroscopy using 0.875 mM 5,5′-dithiobis(2-nitrobenzoic acid) (DTNB) (Ellman’s reagent) as a chromogenic agent.
For this purpose, GraphPad Prism 8.02 software was used to plot %I vs. [I] (5 different concentrations) via a non-linear regression.

The target of data set [2] is equine serum BuChE (eqBuChE) (Equus caballus, UniProt P81908). Nature of the data set: biochemical. Conditions: for IC50: [S] = 112 µM, 0.1 M phosphate buffer pH 8.0, 25 °C, mean ± SD; for Ki: eqBuChE. The format is biochemical.
equine serum BuChE (eqBuChE), sequence (P81908 whole entry): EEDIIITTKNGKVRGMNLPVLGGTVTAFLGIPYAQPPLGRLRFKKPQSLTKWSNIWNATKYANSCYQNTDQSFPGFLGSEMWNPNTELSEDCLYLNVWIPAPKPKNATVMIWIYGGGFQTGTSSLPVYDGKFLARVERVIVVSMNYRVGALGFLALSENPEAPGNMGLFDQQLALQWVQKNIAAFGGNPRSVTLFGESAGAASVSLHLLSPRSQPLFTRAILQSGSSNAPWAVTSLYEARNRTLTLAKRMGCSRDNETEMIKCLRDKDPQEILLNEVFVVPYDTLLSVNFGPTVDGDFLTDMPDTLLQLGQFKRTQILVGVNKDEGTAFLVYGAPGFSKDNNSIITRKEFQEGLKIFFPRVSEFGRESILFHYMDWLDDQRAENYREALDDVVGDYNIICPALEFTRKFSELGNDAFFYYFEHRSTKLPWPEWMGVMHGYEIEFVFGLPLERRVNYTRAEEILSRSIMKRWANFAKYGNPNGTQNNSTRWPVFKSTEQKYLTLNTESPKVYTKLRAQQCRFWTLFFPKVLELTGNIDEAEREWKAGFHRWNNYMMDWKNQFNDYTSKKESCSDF
Data set [3] deals with T2, eqBuChE (Equus caballus, UniProt P81908).
T2 construct: purified enzymes of animal origin, namely electrophorus electricus AChE (eeAChE) and equine serum BuChE (eqBuChE); purchased Sigma–Aldrich; host or cells: equine serum
T2 sequence (P81908 whole entry): as above
Kind of data set: STD-NMR study with eqBuChE. The class given is binding, equine. Conditions: hybrid 2.5 mM, eqBuChE 2.5 μM. Here is the method: STD-NMR is a very useful validation technique for docking studies, which we have used previously with success.
The NMR spectroscopy experiments were performed on a Bruker Avance III 400 MHz spectrometer equipped with a 5 mm broadband (PABBO BB/19F-1H/D Z-GRD) resonance probe head. The STD-NMR experiments were realized according to our established method. Basically, NMR and STD-NMR experiments were carried out with solvent suppression and a 10 ms spinlock filter after the 90◦ pulse to reduce residual signals from the protein. For selective saturation, cascades of Gaussian pulses with a length of 50 ms and 40–60 dB of attenuation were employed, with an interpulse delay of 1 ms. The on-resonance and off-resonance frequencies were set to 0 and 12,000 Hz, respectively. STD-NMR controls were performed using the ligand itself. Blank experiments were performed to guarantee the absence of direct saturation of the ligand proton signals. The relaxation delay was properly adjusted so that the experiment time length was kept constant at 6.5 s. Water suppression at 1880 Hz (4.7 ppm) was conducted. Specifically, the saturation time to obtain the STD buildup curves was recorded at 0.25, 0.5, 1, 2, 3, 4, and 5 s. A 5 μM eqBuChE solution was prepared in a D2O. Five mM stock solutions were prepared for hybrids A1 and B4. […]. The final concentrations of ligand and enzyme were […], respectively.

The test system of a further data set is Artemia salina. Kind of data set: Artemia salina lethal toxicity assay. The format is in vivo. Conditions: 24 h. Here is the method:
(§1) Artemia salina was used for in vivo general toxicity assessment of the compounds A1–3 and B1–5.
(§2) The ARTOXKIT M protocol was used. The percentage of dyed nauplii of Artemia salina, grown in the presence of variable concentrations of the inhibitor compounds (A1–3 and B1–5) (0.01 to 100 µM).
(§3) Saline water with 1% DMSO was used as a blank.
(§4) In parallel, a K2Cr2O7 test was performed as quality control.

A further data set is described as follows: FRAP antioxidant assay. Conditions: for Antioxidant capacity, FRAP method: 6–200 µM; for Trolox Equivalent Antioxidant Capacity (TEAC), FRAP method: at 200 μM, compared to Trolox.
Data set [4] is described as follows: Artemia salina lethal toxicity assay. Conditions: in vivo. The format is in vivo. Here is the method:
as §1, §2, §3, §4

Data set [5] concerns eqBuChE. Conditions: cited from earlier work.
The subject of the next data set is BuChE. Conditions: cited from earlier work.
The subject of the next data set is AChE. Conditions: cited from earlier work.

What is called IC50 is the concentration at which inhibition is half-maximal. As to `CC1=C(n2cc(-c3ccccc3)nn2)C(c2ccccc2)NC(=O)N1` (centres unmarked) [Hybrid A1, 6-Methyl-4-phenyl-5-(4-phenyl-1,2,3-triazol-1-yl)-3,4-dihydropyrimidin-2-one], the figures for the IC50 in [1] and in [2] were above 100 µM and 12 ± 2 µM, respectively. Moreover, the “STD-NMR attenuation, H3” value on eqBuChE [3] (3 s saturation, H9 set to 100%) is reported as 87%. Also, the “STD-NMR attenuation, H7” value at eqBuChE [3] (3 s saturation, H9 set to 100%) is given as 88%. Besides, the “NOEC (No Observed Effect Concentration)” value in the data set with Artemia salina turned out to be 200 µM.

For `CC1=C(n2cc(-c3ccccc3)nn2)C(c2ccc(Cl)cc2)NC(=O)N1` (centres unmarked) [Hybrid A2, 4-(4-Chlorophenyl)-6-methyl-5-(4-phenyl-1,2,3-triazol-1-yl)-3,4-dihydropyrimidin-2-one], the IC50 is above 100 µM in [1] and 24 ± 1 µM in [2]. For the same compound, the “NOEC (No Observed Effect Concentration)” value with Artemia salina turned out to be 200 µM.

As to `CC1=C(n2cc(-c3ccccc3)nn2)C(c2ccc(OCc3ccccc3)cc2)NC(=O)N1` (centres unmarked) [Hybrid A3, 4-(4-(Benzyloxy)phenyl)-6-methyl-5-(4-phenyl-1,2,3-triazol-1-yl)-3,4-dihydropyrimidin-2-one], the IC50 in data set [1] and in data set [2] was above 100 µM each time. The “NOEC (No Observed Effect Concentration)” value in the data set on Artemia salina is 200 µM.

As usually defined, the LC50 is the concentration lethal to half of the exposed cells or organisms. Higher therefore signals a less lethal substance. For the compound `O=C1NC(Cn2cc(-c3ccccc3)nn2)=C(n2cc(-c3ccccc3)nn2)C(c2ccccc2)N1` (centres unmarked) [Hybrid B1, 4-Phenyl-5-(4-phenyl-1,2,3-triazol-1-yl)-6-((4-phenyl-1,2,3-triazol-1-yl)methyl)-3,4-dihydropyrimidin-2-one], the “Antioxidant capacity, FRAP method” value in “FRAP antioxidant assay” is recorded as “null values”. In addition, the figures for the IC50 in data set [1] and in data set [2] were above 100 µM and 53 ± 4 µM, respectively. The compound also showed an LC50 at 24 h in data set [4] above 200 µM. Also, the “NOEC (No Observed Effect Concentration)” value in the data set on Artemia salina was 200 µM.

As to `O=C1NC(Cn2cc(-c3ccc(Br)cc3)nn2)=C(n2cc(-c3ccccc3)nn2)C(c2ccccc2)N1` (centres unmarked) [Hybrid B2, 6-((4-(4-Bromophenyl)-1,2,3-triazol-1-yl)methyl)-4-phenyl-5-(4-phenyl-1,2,3-triazol-1-yl)-3,4-dihydropyrimidin-2-one], the “Antioxidant capacity, FRAP method” value in “FRAP antioxidant assay” is listed as “null values”. For the same compound, the IC50 in data set [1] and in data set [2] was above 100 µM each time. Also, the LC50 at 24 h in [4] is above 200 µM. In addition, the “LOEC (Lowest Observed Effect Concentration)” value in the data set on Artemia salina was 100 µM. Further, the “NOEC (No Observed Effect Concentration)” value with Artemia salina was found to be 1 µM.

On to `O=C1NC(Cn2cc(C3CC3)nn2)=C(n2cc(-c3ccccc3)nn2)C(c2ccccc2)N1` (centres unmarked) [Hybrid B3, 6-((4-Cyclopropyl-1H-1,2,3-triazol-1-yl)methyl)-4-phenyl-5-(4-phenyl-1,2,3-triazol-1-yl)-3,4-dihydropyrimidin-2-one], for which the “Antioxidant capacity, FRAP method” value in “FRAP antioxidant assay” is recorded as “some potential to reduce Fe(III) to Fe(II)”. The “Trolox Equivalent Antioxidant Capacity (TEAC), FRAP method” value in the data set “FRAP antioxidant assay” worked out at 0.257. Also, the IC50 was above 100 µM in [1] and 58 ± 3 µM in [2]. Besides, the “NOEC (No Observed Effect Concentration)” value in the data set with Artemia salina came to 200 µM.

Regarding `O=C1NC(Cn2cc(CN3C(=O)C(=O)c4ccccc43)nn2)=C(n2cc(-c3ccccc3)nn2)C(c2ccccc2)N1` (centres unmarked) [Hybrid B4, 1-((1-((2-Oxo-6-phenyl-5-(4-phenyl-1,2,3-triazol-1-yl)-1,2,3,6-tetrahydropyrimidin-4-yl)methyl)-1,2,3-triazol-4-yl)methyl)indoline-2,3-dione], in “FRAP antioxidant assay”, the “Antioxidant capacity, FRAP method” value is recorded as “null values”. In addition, the values for the IC50 in data set [1] and in data set [2] were above 100 µM and 1 ± 0.1 µM, respectively. Also, the Ki in data set [2] (inhibition constant for binding to the enzyme-substrate complex, read-out: Kib (converted)) is 1400 nM; in data set [2] (inhibition constant for binding to the free enzyme, read-out: Kia (converted)) it was 1100 nM. The “Type of inhibition of eqBuChE” value in [2] (methods of Dixon and Cornish-Bowden) is “mixed mode of inhibition”. Further, at eqBuChE [3] (4 s saturation, H16 set to 100%), the “STD-NMR attenuation, H11 and H13 of the CH2 groups” value worked out at 33%. For the same compound, the “NOEC (No Observed Effect Concentration)” value in the data set with Artemia salina stood at 200 µM.

On to `O=C1NC(Cn2cc(-c3ccccc3)nn2)=C(n2cc(-c3ccccc3)nn2)C(c2ccc(OCc3ccccc3)cc2)N1` (centres unmarked) [Hybrid B5, 4-(4-(Benzyloxy)phenyl)-5-(4-phenyl-1,2,3-triazol-1-yl)-6-((4-phenyl-1,2,3-triazol-1-yl)methyl)-3,4-dihydropyrimidin-2-one], for which, in the data set “FRAP antioxidant assay”, the “Antioxidant capacity, FRAP method” value is given as “some potential to reduce Fe(III) to Fe(II)” and the “Trolox Equivalent Antioxidant Capacity (TEAC), FRAP method” value turned out to be 0.216. In data set [1], this compound displayed an IC50 above 100 µM. The compound further displayed an IC50 in data set [2] above 100 µM. In the data set on Artemia salina, the “NOEC (No Observed Effect Concentration)” value was 200 µM.

With `[K+].[K+].[O]=[Cr](=[O])([O-])[O][Cr](=[O])(=[O])[O-]` [Hybrid K2Cr2O7, K2Cr2O7, reference compound], in the data set on Artemia salina (reference test), the LC50 was 23.6 mg/L, the “LOEC (Lowest Observed Effect Concentration)” value is given as 18 mg/L and the “NOEC (No Observed Effect Concentration)” value is 10 mg/L.

With `CC(C)[C@@H]1CC[C@@H](C)C[C@@H]1n1cc(CN2C(=O)C(=O)c3ccccc32)nn1` [III], the 50% inhibitory concentration (IC50) in the data set on eqBuChE [5] was 0.46 µM.

Take `O=c1ccc2ccc(OCCCCCn3cc(CNc4c5c(nc6ccccc46)CCCC5)nn3)cc2o1` [II]: the IC50 is 6 nM in the data set with BuChE and 95 nM in the data set on AChE.

For `COc1cc(OC)c2c(=O)c(OCCCCn3cc(CN4C(=O)C(=O)c5ccccc54)nn3)c(-c3ccc(OC)c(OC)c3)oc2c1` [IV], the IC50 in the data set with eqBuChE [5] is 11.2 µM.

For `CC(=O)c1ccc(OCc2cccc(C(F)(F)F)c2)cc1OCc1cn(CCc2c[nH]c3ccccc23)nn1` [I], the IC50 in the data set on BuChE is 0.13 nM.

As for `CCOC(=O)C1=C(C[Se]C(=O)c2ccc(C)cc2)NC(=O)NC1c1ccccc1` (centres unmarked) [VI], the IC50 in the data set with AChE was 7210 nM.

Regarding `COc1ccc(C2NC(=O)NC(CCc3ccc(O)cc3)=C2C(=O)CCc2ccc(O)cc2)cc1` (centres unmarked) [V], in the data set with AChE, the IC50 is 1340 nM.
